Tested on: cDNA probe
Settings: pH 7.5

Row | Substance | event mean residence time
1 | TTTTTTTTTTTTTTTTTTTT [T20] | 0.12 ± 0.01 ms
2 | AAAAAAAAAAAAAAAAAAAA [A20] | 11.7 ± 0.2 ms
3 | 5′-GGATTATGGTGAAATATTGA-3′ [aLF-2] | 57.4 ± 2.5 ms
4 | 5′-GGATTATTGTGAAATATTGA-3′ [aLF-1] | 342 ± 35 ms
